These results are taken from patent US20210154119A1, “ASMT EXPRESSION PROMOTER” (Shiseido Company, Ltd., priority 2018, published 2021).

The assay concerns ASMT gene. Kind of assay: ASMT gene expression level in epidermal keratinocytes by quantitative PCR. The assay is classed as cell-based. On the procedure: Commercially available normal adult skin-derived keratinocytes (Kurabo) were inoculated into a T75 flask at 5×10^5 cells/flask, and were cultured in a keratinocyte medium (Humedia-KG2, Kurabo) at 37° C. in a 5% CO2 atmosphere until they reached semiconfluency. The resulting cells were used as seed cells. The keratinocytes were collected by trypsinization, and inoculated into a 24-well plate at 2×10^4 cells/well, and cultured in a keratinocyte medium (Humedia-KG2, Kurabo) at 37° C., 5% CO2 atmosphere until they reached confluency.
To the epidermal keratinocytes having reached confluency was added the ectoin sample at an appropriate dilution ratio so that the ectoin concentration in the medium was 1 mM, followed by the continuation of the culture at 37° C. in a 5% CO2 atmosphere. As a control, a medium not containing the ectoin sample was used to carry out the culture.
Ten hours after the addition of ectoin, the medium was removed. Then the cells were lysed and RNA was extracted therefrom using a commercially available RNA extraction reagent (RNeasy Mini Kit, Qiagen).
Using the thus extracted RNA as a template, quantitative PCR was performed with a commercially available quantitative PCR reagent (BrilliantII QRT-PCR kit, Agilent) and a quantitative PCR device (Mx-3005P, Agilent), by which the expression level of the ASMT gene was determined. At the same time, the expression level of the RPLP0 gene whose expression level was almost constant was also determined as an internal standard. Commercially available PCR primer set (Takara Bio Inc.) specific to each gene was used.
To the epidermal keratinocytes cultured in the same manner as in Example 1 was added the ectoin sample at appropriate dilution ratios so that the ectoin concentration in the medium was 0.005 wt %, 0.01 wt %, 0.02 wt %, 0.05 wt %, 0.1 wt %, followed by the continuation of the culture at 37° C. in a 5% CO2 atmosphere.
To the epidermal keratinocytes cultured in the same manner as in Example 1 was added the respective samples at appropriate dilution ratios so that the concentration in the medium was respectively 1 mM (ectoine), 100 μM (glycosyl hesperidin), 0.1% (green tea extract), and 0.1% (oolong tea extract). These concentrations are all normal concentrations to be used in external formulations. After the addition of the samples, the cells were cultured, from which the ASMT expression level was evaluated in the same manner as in Example 1. As a control, a medium not containing any sample was used to carry out the culture.

On to `CC1=N[C@H](C(=O)O)CCN1` [ectoin, (4S)-2-methyl-1,4,5,6-tetrahydropyrimidine-4-carboxylic acid], for which the “ASMT gene expression level relative to control (control set to 1)” value (ectoin 1 mM in medium, 10 hours, normal adult skin-derived keratinocytes, versus medium containing no ectoin (FIG. 1)) is given as “very high ASMT expression promoting action”. For the same compound, the “Concentration-dependency of ASMT expression promoting action” value (ectoin 0.005-0.1 wt % in medium, 10 hours, keratinocytes (FIG. 2)) is recorded as “dependent on the concentration thereof”. In addition, the “ASMT gene expression level (ASMT/RPLP0) in comparison with various antioxidants” value (ectoine 1 mM versus glycosyl hesperidin 100 μM, green tea extract 0.1%, oolong tea extract 0.1%, keratinocytes (FIG. 3)) was “higher than that of green tea extract, oolong tea extract, and glycosyl hesperidin”. Further, the “ASMT gene expression level (ASMT/RPLP0)” value (ectoine 0.02 wt % in medium, 10 hours, keratinocytes, compared with 0.005 wt % and 0.01 wt % (FIG. 2)) is “higher than the cases of lower concentrations of ectoine (0.005 wt %, 0.01 wt %)”.
